Measured values as given in patent US20240261267A1, “METHODS FOR TREATING MULTIPLE SCLEROSIS” (Vanda Pharmaceuticals Inc., priority 2021, published 2024).

Experiments:
primary mouse OPCs = assay: differentiation assay, quantitative PCR; assay type: cell-based
Procedure: The effects of ponesimod, a selective S1P1 receptor agonist, and A971432, a selective S1P5 receptor agonist, on oligodendrocyte precursor cell (OPC) migration and differentiation were evaluated. Nine concentrations were tested (logarithmic dilutions ranging from 0.3 nM to 3000 nM, n=6 per concentration). Fingolimod phosphate (P-FTY720, 3000 nM, n=6) was included as a positive control, 0.1% DMSO was included (min.one/plate) as a negative control. Primary mouse OPCs were harvested on postnatal day 0 or 1 and mixed glia cultures were maintained for 14 days. Primary OPCs were then purified using the shake-off method, and used for either a migration assay, or a differentiation assay, as detailed below. To harvest primary mouse OPCs, cortices are isolated from mouse pups on postnatal day 0 or 1 and placed in ice-cold Dulbecco's Modified Eagle Medium (DMEM) (Sigma Aldrich, Overijse, BE). The cortices are homogenized and centrifuged for 5 minutes at 300 G. The supernatant is removed, and a papain solution is added for 30 minutes (125 uL DMEM solution per brain containing 20 units/ml papain and 40 μg/ml DNase, at 37 degrees). Digestion is inactivated by adding 9 ml cold DMEM. The solution is then centrifuged for 5 minutes at […]. The supernatant is carefully removed, and the pellet is resuspended in 2-5 ml culture medium (DMEM with 10% fetal calf serum (Biowest, Nuaillé, FR) and 1% pen/strep (Sigma Aldrich, Overijse, BE)). […] Cell suspension is divided over PLL (Sigma Aldrich, Overijse, BE)-coated flasks (2 brains per flask) and DMEM is added to a final volume of 10 ml. DMEM is replaced on day 4, 7, and 11. On day 7 and 11, insulin (Sigma Aldrich, Overijse, BE) is added to the medium (5μg/ml). On day 14, OPCs are separated from astrocytes by the shake-off method: flasks are placed on a shaker for 45 minutes at 75 rpm (37 degrees). The medium is then aspirated and discarded, and 10 ml fresh culture medium is added. Flasks are then returned to the shaker for 16-18 hours shaking at 280 rpm. Next, the medium is isolated, and this cell suspension is placed in a plastic petri dish and incubated for 25 minutes. The medium, which contains the OPCs, is then collected and centrifuged for 5 minutes at 300 G. Cells are then resuspended in SATO differentiation medium containing 2% horse serum, 2% B-27, 50 U/ml P/S, 2.4 μl/ml transferrin, 1.04 μl/ml L-thyroxine, 1 μl/ml putrescin, 1 μl/ml progesterone, 1 μl/ml TIT, 0.74 μl/ml sodium selenite and 0.5 μl/ml insulin (all from Sigma-Aldrich, Overijse, BE). […] After shake-off, cells are reset for their differentiation status: one hour after plating, cells are treated with platelet-derived growth factor (PDGF, 10 ng/ml, Peprotech EC Ltd, London, UK) and fibroblast growth factor (fgf, 10 ng/ml, Peprotech EC Ltd, London, UK). Twenty-four hours after plating, cells are treated again with fgf (10 ng/ml). 250,000 cells are plated onto glass coverslips in 24-well plates. Cells are treated with test compound or DMSO on day 1 (twenty-four hours after fgf treatment) and 3, and lysated on day 4. Total RNA was isolated from primary OPCs, using the RNeasy mini kit (Qiagen, Venlo, the Netherlands), according to the manufacturer's instructions. RNA concentration and quality is analyzed with a Nanodrop spectrophotometer (Isogen Life Science, Leiden, The Netherlands). RNA is reverse-transcribed using the qScript cDNA Supermix kit (Quanta, Leuven, Belgium). qPCR is performed to analyze gene expression, using the Applied Biosystems QuantStudio 3 Real-Time PCR System (Life Technologies, Gent, Belgium). The reaction mixture consists of SYBR Green master mix (Life Technologies, Carlsbad, USA), 10 μM forward and reverse primers (Integrated DNA Technologies, Leuven, Belgium), nuclease-free water and cDNA template (12.5 ng), up to a total reaction volume of 10 μl. […] All data was normalised against plate-matched negative controls.

MS patients = assay: Phase III OPTIMUM study, efficacy outcomes; assay type: in vivo, human; conditions: ponesimod 20 mg compared with teriflunomide 14 mg
[1] = system: adult subjects with relapsing MS; assay: Phase III OPTIMUM study, safety and treatment discontinuation
Procedure: A prospective, multicenter, randomized, double-blind, active controlled, parallel-group, phase III, superiority study (Phase III OPTIMUM study) was conducted.
Subjects had active disease evidenced by one or more MS attacks with onset within the period of 12 to 1 months prior to baseline EDSS assessment, or by two or more MS attacks with onset within the 24 to 1 months prior to baseline EDSS assessment, or with one or more gadolinium-enhancing (Gd+) lesion(s) of the brain on an MRI performed within 6 months prior to baseline EDSS assessment. Enrolled subjects were ambulatory with an EDSS score of up to 5.5 inclusive. The subjects were treatment-naïve (i.e., no MS disease-modifying therapy received at any time in the past) or previously treated with interferon (IFN) β-1a, IFN β-1b, glatiramer acetate, dimethyl fumarate, or natalizumab.
The treatment period consisted of an up-titration period (from Day 1 to 14) and a maintenance period (Day 15 until EOT).
To reduce the first-dose effect of ponesimod, an up-titration scheme was implemented from Day 1 to Day 14: • Days 1 and 2; 2 mg. • Days 3 and 4; 3 mg. • Days 5 and 6; 4 mg. • Day 7; 5 mg. • Day 8; 6 mg. • Day 9; 7 mg. • Day 10; 8 mg. • Day 11; 9 mg. • Days 12, 13, and 14; 10 mg. • Day 15 until EOT; 20 mg.
The Safety Set (SAF) included all randomized subjects who received at least one dose of study treatment. Subjects were analyzed based on actual treatment taken, not randomized treatment.

[2] = system: normal appearing white matter (NAWM) of MS patients; assay: Phase III OPTIMUM study, myelination estimated from standardized T1/T2 MRI; assay type: in vivo, human
Description: The impact of treatment on myelination changes in normal appearing white matter (NAWM) which sustains damage early in the MS disease course was compared
Myelination was estimated from T1 and T2-weighted magnetic resonance images collected at baseline, week 60 and week 108 in 427 patients treated with ponesimod and 428 with teriflunomide. Standardized T1/T2 was used to quantify myelination in non-lesional corpus callosum, cingulum, and remaining NAWM. Average myelination change (ΔM) from baseline at weeks 60 (w60) and 108 (w108) were compared across treatment arms using two-sided two sample t-tests, all p-values nominal.

[3] = Safety Set, ponesimod 20 mg, teriflunomide 14 mg
[4] = ponesimod 20 mg, teriflunomide 14 mg

O=C(O)C1CN(Cc2ccc(OCc3ccc(Cl)c(Cl)c3)cc2)C1 [A97]
MOG expression (primary mouse OPCs; 3 nM): significant decrease
Mag gene expression (primary mouse OPCs; 3 nM): significant decrease
Mbp expression (primary mouse OPCs; 3 nM): decrease
Mag gene expression (primary mouse OPCs; 10 nM): significant decrease
Mbp expression (primary mouse OPCs; 10 nM): decrease
Ng2 gene expression (primary mouse OPCs; 10 nM): significant decrease
PLP expression (primary mouse OPCs; 10 nM): significant decrease
Mag gene expression (primary mouse OPCs; 30 nM): significant decrease
Mobp expression (primary mouse OPCs; 30 nM): significant decrease
Ng2 gene expression (primary mouse OPCs; 30 nM): significant decrease
Mobp expression (primary mouse OPCs; 100 nM): significant decrease
MOG expression (primary mouse OPCs; 300 nM): significant decrease
PLP expression (primary mouse OPCs; 300 nM): significant decrease
Mag gene expression (primary mouse OPCs; 1000 nM): significant decrease
Mbp expression (primary mouse OPCs; 1000 nM): decrease
Mobp expression (primary mouse OPCs; 1000 nM): significant decrease
Ng2 gene expression (primary mouse OPCs; 1000 nM): significant decrease
PLP expression (primary mouse OPCs; 1000 nM): significant decrease
expression of Ng2, Plp, Mbp, Mobp, Mog, and Mag (primary mouse OPCs; concentration series): significant concentration-dependent decreases

CCC/N=C1\S/C(=C\c2ccc(OC[C@H](O)CO)c(Cl)c2)C(=O)N1c1ccccc1C [ponesimod, (R)-5-[3-chloro-4-(2,3-dihydroxy-propoxy)-benz[Z]ylidene]-2-([Z]-propylimino)-3-o-tolyl-thiazolidin-4-one]
Fatigue Symptoms and Impacts Questionnaire-Relapsing Multiple Sclerosis (MS patients): difference
active lesions/year (MS patients): reduction
annualized relapse rate (MS patients): greater reduction
brain volume loss (MS patients): lower
disability accumulation risk estimates (MS patients): reduction
2nd or higher degree AV block ([1]; Day 1, first dose): No 2nd or higher degree AV block
ECG HR effect: nadir ([1]; Day 1, first dose): 2 hours post-dose
subjects meeting discharge criteria at 4 hours post-dose ([1]; Day 1, first dose): ca. 99%
subjects with asymptomatic post-dose HR≤40 bpm ([1]; Day 1, all with pre-treatment HR<55 bpm): 3
AEs leading to premature discontinuation of study drug, SOC Reproductive system and breast disorders [1, 3]: 0 n
AEs leading to premature discontinuation of study drug, SOC Surgical and medical procedures [1, 3]: 0 n
Premature treatment discontinuation: Death [1, 3]: 0 n
Subject with at least one AE leading to study drug discontinuation [1, 3]: 8.7%
Subject with at least one Fatal AE [1, 3]: 0 n
Subject with at least one Serious AE [1, 3]: 8.7%
Subject with at least one treatment-emergent AE [1, 3]: 88.8%
Treatment-emergent AESI: Hepatobiliary disorders/Liver enzyme abnormality [1, 3]: 25.7%
Treatment-emergent AESI: Hypertension [1, 3]: 10.1%
Treatment-emergent AESI: Pulmonary events [1, 3]: 8.0%
mean heart rate reduction compared to pre-dose ([1]; at 2-hours post dose, Day 1): −8.7 bpm
AESI heart rate and rhythm: Electrocardiogram QT prolonged ([1]; on Day 1, Safety Set): 0 n
AESI heart rate and rhythm: Presyncope ([1]; on Day 1, Safety Set): 0 n
AESI effect on heart rate and rhythm (including hypotension): Subjects with at least one AE ([1]; on Day 1, Safety Set, ponesimod arm (2 mg on Day 1), teriflunomide 14 mg): 2.1%
TEAE ALT increased [1, 4]: 19.5%
TEAE headache [1, 4]: 11.5%
TEAE nasopharyngitis [1, 4]: 19.3%
TEAE upper respiratory tract infection [1, 4]: 10.6%
proportion of subjects who experienced ALT increase>3×ULN [1, 4]: 17.3%
proportion of subjects who experienced ALT increase>8×ULN [1, 4]: 0.7%
subjects discontinued due to AEs or tolerability related reasons [1, 4]: 6.5%
average myelination decrease, comparison across treatment arms ([2]; all regions and both visits (w60, w108), ponesimod 20 mg vs teriflunomide 14 mg): significantly less demyelination
myelination change from baseline (standardized T1/T2) ([2]; non-lesional corpus callosum, cingulum, remaining NAWM, weeks 60 and 108, p<0.05): only the corpus callosum showed a significant decrease at w108
changes at the gene expression level (primary mouse OPCs; all concentrations tested, normalised to negative controls): No significant changes
